The source of these data is US10099993B2, “Metabotropic glutamate receptor positive allosteric modulators (PAMS) and uses thereof” (Sanford-Burnham Medical Research Institute, priority 2014, dated 2018).

Data set [1] relates to cocaine-maintained responding in rats. Particulars: previously shown (Jin, X. et al. 2010); cited from earlier work.
The test system of data set [2] is food-maintained responding in rats. The following applies: previously shown (Jin, X. et al. 2010); cited from earlier work.
In data set [3] the target is T1, mGlu3 (Rattus norvegicus (Rat), UniProt P31422). Briefly: TREx293 mGlu3 Gα15 calcium assay. In kind it is cell-based. Particulars: presence of an EC20 of glutamate, 20 ng/mL Tet for 20 h. Here is the method: In order to generate a tetracycline (Tet)-inducible rat mGlu3 stable cell line to be used for a calcium mobilization assay, TREx293 cells (Invitrogen) were transfected with mouse Gα15-pCMV6 plasmid (Origene) using Fugene6 (Promega). The cells were selected for Gα15 expression with 1 mg/mL G418 in the presence of 10 μg/ml blasticidin to maintain Tet Repressor expression. Two weeks after the selection, polyclonal TREx293 Gα15 cells were obtained. The entire coding sequence of rat mGlu3 was amplified by polymerase chain reaction (PCR) and cloned into the Tet-inducible expression plasmid pcDNA5/TO (Invitrogen). Rat mGlu3-pcDNA5/TO was transfected into TREx293 Gα15 cells and selected for mGlu3 expression with 200 μg/ml hygromycin in the presence of G418 and blasticidin.
For mGlu3 the TREx tetracycline-inducible system (Invitrogen) was utilized. […] In the absence of Tet, no measurable expression of mGlu3 is detected either by Western blot (FIG. 3A) or by functional response to calcium mobilization (FIG. 3B). […] Data were analyzed using nonlinear regression. Data were obtained from three separate experiments performed in triplicate, normalized to the response to 100 μM glutamate in each experiment, and are expressed as the mean±SEM.

In data set [4] the test system is food-maintained responding in rats. The data set can be described thus: Food self-administration experiment. In kind it is in vivo, rat. The following applies: rats, 0, 10, 20, 40 mg/kg i.p., 60 min pretreatment. On the procedure: (§1) Subjects. Male Wistar rats (Charles River Laboratories, Raleigh, N.C.) weighing 300-350 g at the beginning of each experiment were housed in pairs in standard rat Plexiglas cages with food and water available ad libitum, except during food training and the food self-administration experiment (see below). Rats were maintained in a climate-controlled room at 21° C. on a 12 h reverse light/dark cycle and all experiments were conducted during the dark (i.e., active) phase (7:00 h-19:00 h) of the cycle under dim red lighting. All procedures were conducted in accordance with the guidelines from the National Institutes of Health and the Association for the Assessment and Accreditation of Laboratory Animal Care and were approved by the Institutional Animal Care and Use Committee.
Food Training. Details regarding the experimental procedures have been described previously.^37 All rats were placed under food restriction (20 g food/day) and trained during daily 1 hr sessions to lever press for 45 mg food pellets (Research Diets, New Brunswick, N.J.) under a fixed ratio 1 reinforcement schedule with a 1 s time-out period (FR1 TO1s). Successful responses were followed by illumination of a cue light for the duration of the time-out period, when lever presses had no consequence. […]
(§2) Statistical Analyses. […] Significant effects were further analyzed with Tukey post hoc tests. […]

Data set [5] relates to cocaine-maintained responding in rats. Briefly: Cocaine self-administration experiment. In kind it is in vivo, rat. Here is the method: as §1
Drugs. Cocaine hydrochloride (National Institute on Drug Abuse, Bethesda, Md.) was dissolved in sterile physiological saline and filtered through a 0.22 μm syringe filter (Fisher Scientific, Pittsburgh, Pa.) for sterilization purposes.
Food Training. […]
as §2

Data set [6] is described as follows: In vivo PK in rats, i.p. administration. Particulars: 10 mg/kg; for Kp at 30 min: rat, brain and plasma, ip.
The target of data set [7] is T1, mGlu3. Briefly: mGlu3 GIRK thallium flux assay.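 Note: kinetic fluorescence slope read shortly after thallium plus agonist addition, scaled between vehicle and maximal agonist control.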
The target of another data set is mGlu4 (Rattus norvegicus (Rat), UniProt P31423). Briefly: mGlu4 GIRK thallium flux assay. Format: cell-based. Particulars: full agonist concentration-response ± 10 μM compound.
A short description of data set [8]: In vivo PK in rats, i.v. administration. The following applies: 2 mg/kg. Also on record: species or system rat.
The target in a further data set is mGlu5 (Rattus norvegicus (Rat), UniProt P31424). The data set can be described thus: mGlu5 calcium assay. Format: cell-based. The following applies: full agonist concentration-response ± 10 μM compound.
Another data set addresses mGlu6 (Rattus norvegicus (Rat), UniProt P35349). Briefly: mGlu6 GIRK thallium flux assay. Format: cell-based. Particulars: full agonist concentration-response ± 10 μM compound.
The target of another data set is mGlu1 (Rattus norvegicus (Rat), UniProt P23385). The data set can be described thus: mGlu1 calcium assay. Format: cell-based. Particulars: full agonist concentration-response ± 10 μM compound.
Data set [9] has as its target T2, mGlu2 (Rattus norvegicus (Rat), UniProt P31421). Briefly: mGlu2 GIRK thallium flux assay.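 Note: Cell-based assay, rate of fluorescence rise right after thallium plus agonist addition read on a kinetic imaging plate reader, normalized to vehicle and maximal agonist control.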
Data set [10] addresses T2, mGlu2. Briefly: HEK293A mGlu2 Gα15 calcium assay. Format: cell-based. Particulars: presence of an EC20 of glutamate.
Another data set deals with mGlu8 (Rattus norvegicus (Rat), UniProt P70579). The data set can be described thus: mGlu8 GIRK thallium flux assay. Format: cell-based. Particulars: full agonist concentration-response ± 10 μM compound.
A short description of data set [11]: In vivo PK in rats, p.o. administration. Also on record: species or system rat. Particulars: 20 mg/kg.
In the next data set the target is mGlu7 (Rattus norvegicus (Rat), UniProt P35400). The data set can be described thus: mGlu7 GIRK thallium flux assay. Format: cell-based. The following applies: full L-AP4 concentration-response ± 10 μM compound.
Data set [12] deals with nigrostriatal damage induced by 1-methyl-4-phenyl-1,2,3,6-tetrahydropyridine. The following applies: acute or repeated injections 0.25 or 3 mg/kg, i.p., mice; cited from earlier work.
For data set [13], the system named is GDNF mRNA and protein levels. Particulars: 0.25-3 mg/kg, i.p.; cited from earlier work.
The next data set has as its system R6/2 mice. The following applies: cited from earlier work.
Another data set has as its system SOD1G93A mice. Particulars: continuous treatment 1 or 5 mg/kg/day; cited from earlier work.
The next data set has as its system spinal cord GDNF levels. Particulars: 0.5, 1 or 5 mg/kg i.p., wild-type and mGlu2 knockout mice; cited from earlier work.
The test system of the next data set is reserpine-treated rat. The following applies: cited from earlier work.
Data set [14] has as its system 6-OHDA lesioned nigrostriatal tract. Particulars: cited from earlier work.
A further data set has as its system SMI-32+ motor neurons. Particulars: mixed cultures of spinal cord cells; cited from earlier work.
In data set [15] the test system is cultured spinal cord astrocytes. Particulars: wild-type and mGlu2 knockout mice, not mGlu3 knockout; cited from earlier work.
The mark [16] stands for this setting: compound concentration-response in presence and absence of EC20 glutamate.
The mark [17] stands for this setting: full agonist concentration-response ± 10 μM compound.

“Also recorded” adds a separate entry of the source. Where two headings read alike, the source gives them in different places.

T2 sequence (P31421 19-872): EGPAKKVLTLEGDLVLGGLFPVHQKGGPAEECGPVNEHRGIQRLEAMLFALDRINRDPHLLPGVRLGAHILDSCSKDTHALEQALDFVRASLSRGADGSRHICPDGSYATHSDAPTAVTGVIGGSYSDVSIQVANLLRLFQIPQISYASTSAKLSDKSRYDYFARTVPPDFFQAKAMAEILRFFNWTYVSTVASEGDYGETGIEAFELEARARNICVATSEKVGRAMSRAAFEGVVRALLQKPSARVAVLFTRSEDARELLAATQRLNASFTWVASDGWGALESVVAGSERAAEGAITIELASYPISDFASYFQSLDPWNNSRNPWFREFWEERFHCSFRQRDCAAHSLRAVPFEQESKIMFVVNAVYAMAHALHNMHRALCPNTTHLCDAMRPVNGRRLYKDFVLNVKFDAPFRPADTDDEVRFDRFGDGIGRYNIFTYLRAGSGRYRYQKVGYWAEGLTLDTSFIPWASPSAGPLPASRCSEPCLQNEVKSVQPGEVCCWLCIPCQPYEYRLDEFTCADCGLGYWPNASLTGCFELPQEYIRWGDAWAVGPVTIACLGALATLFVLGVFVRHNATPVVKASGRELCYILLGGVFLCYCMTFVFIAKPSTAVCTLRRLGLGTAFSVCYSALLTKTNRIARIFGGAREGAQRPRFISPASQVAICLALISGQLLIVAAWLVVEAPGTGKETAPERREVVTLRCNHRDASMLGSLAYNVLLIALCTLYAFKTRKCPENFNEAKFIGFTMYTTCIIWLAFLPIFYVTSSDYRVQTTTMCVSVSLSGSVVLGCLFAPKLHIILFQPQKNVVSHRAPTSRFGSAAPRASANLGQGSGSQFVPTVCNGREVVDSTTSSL
T1 sequence (P31422 23-879): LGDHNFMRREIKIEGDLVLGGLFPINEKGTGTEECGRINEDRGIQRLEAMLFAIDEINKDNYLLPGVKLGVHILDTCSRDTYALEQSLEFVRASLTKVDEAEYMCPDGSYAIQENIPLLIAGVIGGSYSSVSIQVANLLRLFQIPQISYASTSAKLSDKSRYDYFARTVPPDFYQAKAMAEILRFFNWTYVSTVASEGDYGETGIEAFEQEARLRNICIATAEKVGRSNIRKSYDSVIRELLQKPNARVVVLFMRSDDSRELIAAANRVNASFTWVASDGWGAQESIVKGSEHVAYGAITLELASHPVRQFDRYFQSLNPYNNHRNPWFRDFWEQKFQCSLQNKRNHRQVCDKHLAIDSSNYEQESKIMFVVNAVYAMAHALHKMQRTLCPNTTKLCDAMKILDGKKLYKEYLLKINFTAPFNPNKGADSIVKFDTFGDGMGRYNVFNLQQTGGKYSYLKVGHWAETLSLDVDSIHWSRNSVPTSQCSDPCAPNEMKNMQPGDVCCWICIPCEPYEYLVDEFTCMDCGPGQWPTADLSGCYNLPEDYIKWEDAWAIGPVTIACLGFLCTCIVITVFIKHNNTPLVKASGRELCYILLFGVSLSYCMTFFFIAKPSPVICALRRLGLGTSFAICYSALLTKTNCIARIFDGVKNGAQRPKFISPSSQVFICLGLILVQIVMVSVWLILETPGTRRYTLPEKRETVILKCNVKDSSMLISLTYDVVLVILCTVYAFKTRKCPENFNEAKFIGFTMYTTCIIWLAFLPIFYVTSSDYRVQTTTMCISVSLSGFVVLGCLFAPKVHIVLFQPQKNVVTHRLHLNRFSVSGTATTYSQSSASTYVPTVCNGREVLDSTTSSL
Sequence of mGlu4 (P31423 33-912): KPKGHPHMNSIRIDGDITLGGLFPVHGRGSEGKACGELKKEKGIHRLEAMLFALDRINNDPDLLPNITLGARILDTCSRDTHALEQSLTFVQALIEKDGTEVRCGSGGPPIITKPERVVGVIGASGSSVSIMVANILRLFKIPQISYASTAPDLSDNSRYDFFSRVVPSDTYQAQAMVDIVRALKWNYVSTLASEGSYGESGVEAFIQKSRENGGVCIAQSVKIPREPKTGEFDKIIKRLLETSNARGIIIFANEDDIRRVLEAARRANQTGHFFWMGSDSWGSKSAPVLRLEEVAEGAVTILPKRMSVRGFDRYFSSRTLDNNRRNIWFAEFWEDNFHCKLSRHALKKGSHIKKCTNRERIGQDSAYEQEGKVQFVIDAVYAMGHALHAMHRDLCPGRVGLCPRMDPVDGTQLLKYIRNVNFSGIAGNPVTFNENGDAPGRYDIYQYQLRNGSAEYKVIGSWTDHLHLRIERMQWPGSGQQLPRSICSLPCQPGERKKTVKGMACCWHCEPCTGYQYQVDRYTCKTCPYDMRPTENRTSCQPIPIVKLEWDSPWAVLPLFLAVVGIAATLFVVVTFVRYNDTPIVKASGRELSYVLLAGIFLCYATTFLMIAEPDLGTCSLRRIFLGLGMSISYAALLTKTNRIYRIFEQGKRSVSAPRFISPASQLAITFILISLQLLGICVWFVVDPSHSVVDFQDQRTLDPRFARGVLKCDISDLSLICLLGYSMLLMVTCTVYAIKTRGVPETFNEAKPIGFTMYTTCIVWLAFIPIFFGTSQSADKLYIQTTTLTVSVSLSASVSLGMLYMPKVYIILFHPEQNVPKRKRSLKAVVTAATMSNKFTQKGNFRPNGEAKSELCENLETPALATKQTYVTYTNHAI
Sequence of mGlu6 (P35349 24-871): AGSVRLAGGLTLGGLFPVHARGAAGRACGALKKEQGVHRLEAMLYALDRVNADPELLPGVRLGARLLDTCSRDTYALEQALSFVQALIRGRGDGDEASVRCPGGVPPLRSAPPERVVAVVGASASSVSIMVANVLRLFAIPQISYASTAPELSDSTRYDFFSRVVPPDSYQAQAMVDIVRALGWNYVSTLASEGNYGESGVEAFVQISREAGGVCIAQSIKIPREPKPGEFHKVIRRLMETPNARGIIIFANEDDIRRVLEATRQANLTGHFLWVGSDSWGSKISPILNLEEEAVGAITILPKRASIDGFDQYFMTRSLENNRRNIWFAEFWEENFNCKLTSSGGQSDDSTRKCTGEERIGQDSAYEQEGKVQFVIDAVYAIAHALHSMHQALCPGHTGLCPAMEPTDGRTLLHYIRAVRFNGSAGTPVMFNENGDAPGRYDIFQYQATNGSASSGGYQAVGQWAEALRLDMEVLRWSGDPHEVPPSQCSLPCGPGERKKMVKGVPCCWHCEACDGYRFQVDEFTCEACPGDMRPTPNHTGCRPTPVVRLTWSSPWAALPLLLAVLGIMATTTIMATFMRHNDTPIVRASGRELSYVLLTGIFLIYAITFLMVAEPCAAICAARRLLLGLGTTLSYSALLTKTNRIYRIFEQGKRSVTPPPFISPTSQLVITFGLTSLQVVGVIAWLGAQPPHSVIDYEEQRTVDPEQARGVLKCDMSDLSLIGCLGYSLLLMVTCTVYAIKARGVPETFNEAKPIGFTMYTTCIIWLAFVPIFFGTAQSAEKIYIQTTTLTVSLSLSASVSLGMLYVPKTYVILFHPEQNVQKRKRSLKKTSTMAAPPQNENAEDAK
Sequence of mGlu5 (P31424 21-1203): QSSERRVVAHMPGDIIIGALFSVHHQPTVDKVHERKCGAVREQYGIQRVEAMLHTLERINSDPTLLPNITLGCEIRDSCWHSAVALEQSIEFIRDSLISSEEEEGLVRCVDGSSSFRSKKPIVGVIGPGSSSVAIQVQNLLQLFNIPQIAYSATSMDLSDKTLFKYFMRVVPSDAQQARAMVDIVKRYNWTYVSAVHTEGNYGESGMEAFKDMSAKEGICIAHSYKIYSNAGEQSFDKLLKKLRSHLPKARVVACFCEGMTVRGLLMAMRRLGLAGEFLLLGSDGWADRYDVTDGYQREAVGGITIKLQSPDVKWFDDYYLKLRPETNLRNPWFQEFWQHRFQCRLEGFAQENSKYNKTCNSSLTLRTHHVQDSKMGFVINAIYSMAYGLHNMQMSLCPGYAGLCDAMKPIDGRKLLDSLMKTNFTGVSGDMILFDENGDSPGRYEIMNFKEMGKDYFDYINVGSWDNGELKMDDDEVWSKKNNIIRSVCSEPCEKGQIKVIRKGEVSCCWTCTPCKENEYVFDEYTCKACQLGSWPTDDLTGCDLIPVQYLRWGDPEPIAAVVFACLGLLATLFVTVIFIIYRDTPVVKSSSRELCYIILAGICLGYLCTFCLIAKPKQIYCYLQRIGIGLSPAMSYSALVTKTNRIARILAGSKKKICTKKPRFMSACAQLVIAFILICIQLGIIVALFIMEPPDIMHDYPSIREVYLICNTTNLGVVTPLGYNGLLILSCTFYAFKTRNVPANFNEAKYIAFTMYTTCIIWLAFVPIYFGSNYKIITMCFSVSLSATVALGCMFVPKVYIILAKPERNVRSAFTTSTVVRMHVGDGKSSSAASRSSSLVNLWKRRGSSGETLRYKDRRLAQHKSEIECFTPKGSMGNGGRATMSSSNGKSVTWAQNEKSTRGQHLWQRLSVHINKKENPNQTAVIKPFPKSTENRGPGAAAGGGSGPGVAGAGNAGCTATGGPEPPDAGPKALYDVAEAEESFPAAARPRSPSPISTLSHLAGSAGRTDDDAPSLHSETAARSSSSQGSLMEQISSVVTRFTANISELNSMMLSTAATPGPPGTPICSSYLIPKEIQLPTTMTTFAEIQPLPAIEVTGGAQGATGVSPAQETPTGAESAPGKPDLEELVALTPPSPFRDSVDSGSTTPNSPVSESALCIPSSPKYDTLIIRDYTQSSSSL

For `Cc1c(OCc2cccc(-c3ccc(C(=O)O)cc3)c2)cc2c(c1C)C(=O)C(C1CCCC1)C2` (stereo not shown) [BINA], the cocaine-maintained responding result in [1] was “decreased only cocaine-maintained responding”. Moreover, the food-maintained responding entry in data set [2] is “no effect on food-maintained responding”. In addition, the “activity in TREx293 mGlu3 Gα15 calcium assay” value on mGlu3 [3] was “inactive”.

For `Cc1c(OCCCCOc2ccc(C(=O)CC(C)(C)C)c(O)c2C)cccc1C(=O)O` [compound 74, 3-(4-(4-(3,3-Dimethylbutanoyl)-3-hydroxy-2-methylphenoxy)butoxy)-2-methylbenzoic acid], the food-maintained responding result in [4] was “dose-dependently decreased”. For the same compound, in data set [5] (rats, 0, 10, 20, 40 mg/kg i.p., 60 min pretreatment), the cocaine-maintained responding result is “dose-dependently decreased; also recorded: decreasing cocaine-maintained responding”. Further, in [5] (rats, highest dose tested 40 mg/kg i.p., p<0.05), the “cocaine-maintained responding compared with food-maintained responding” value is on record as “decreased to a greater extent than food-maintained responding; also recorded: cocaine-maintained responding was significantly lower than food-maintained responding”. The same compound gave a Kp at 30 min in data set [6] of 0.03 ± 0.01.

For the compound `COc1cc(C(=O)O)ccc1OCCCCOc1ccc(C(=O)CC(C)C)c(O)c1C` [Compound 44, 4-{4-[3-Hydroxy-2-methyl-4-(3-methylbutanoyl)phenoxy]butoxy}-3-methoxybenzoic acid], the “activity toward mGlu3 in GIRK thallium-flux assay” value at mGlu3 [7] (setting [16]) is “PAM activity”. Further, at mGlu3 [7] (setting [17]), the “General activity at mGlu3” value is listed as “PAM”. In addition, the “Emin, minimal response of the concentration-response of agonist” value on mGlu3 [7] (mGlu3, 10 μM compound) is “Emin = 4%”; on mGlu2 [9] (mGlu2, 10 μM compound), “Emin = 90%”. Also, the “General activity at mGlu4” value on mGlu4 was “inactive^b”. Further, the “AUC(0→t)” value in data set [8] is given as 304.6 ± 25.8 (μmol/L)*min; in data set [11], 1274.6 ± 246.3 (μmol/L) min. In addition, the Cmax was 6.43 ± 0.39 µM in data set [8] (rat, iv, plasma) and 2.75 ± 0.47 µM in data set [11] (rat, po, plasma). Further, the Vd in data set [8] (rat, plasma, iv, read-out: Vdss) amounted to 0.55 ± 0.04 L/kg. For the same compound, the “General activity at mGlu5” value at mGlu5 is “inactive^b”. Besides, the “General activity at mGlu6” value at mGlu6 is “inactive^b”. The “activity in TREx293 mGlu3 Gα15 calcium assay” value on mGlu3 [3] was “demonstrates mGlu3 PAM activity”. On mGlu1, the “General activity at mGlu1” value is “inactive^b”. The “intrinsic agonist activity towards mGlu2 (Agonist Mode)” value at mGlu2 [9] (absence of an EC20 concentration of agonist) is on record as “intrinsic agonist activity”. The “activity toward mGlu2 in GIRK thallium-flux assay” value at mGlu2 [9] (setting [16]) is “Ago-PAM activity”. Also, the “General activity at mGlu2” value on mGlu2 [9] (setting [17]) was “Ago-PAM”. For the same compound, on mGlu2 [10], the “activity in HEK293A mGlu2 Gα15 calcium assay” value was “behaves as a PAM; also recorded: PAM activity”. In addition, the “General activity at mGlu8” value at mGlu8 is “inactive^b”. The “F, oral bioavailability” value in data set [11] turned out to be 41.9%. The Plasma in data set [11] (harvested at or near the Tmax) came out at 16.38 ± 1.1 µM. In addition, the Kp in [11] (rat, brain and plasma, po, read-out: Brain:Plasma ratio) stood at 0.05 ± 0.01. Besides, in [11] (rat, plasma, po), the time of peak concentration (Tmax) is 1.5 h. The compound further had a Kp at 30 min in [6] of 0.03 ± 0.01. Further, the “Brain, maximum concentration” value in [6] (rats, i.p., Tmax 30 min) amounted to 0.23 ± 0.10 µM. Moreover, the “Plasma, maximum concentration” value in data set [6] (rats, i.p., Tmax 30 min) was found to be 10.57 ± 2.52 µM. Besides, the “General activity at mGlu7” value at mGlu7 is “inactive^b”.

Turning to `N[C@@]1(C(=O)O)CO[C@H]2[C@H](C(=O)O)[C@H]21` [LY379268], the cocaine-maintained responding result in data set [1] is “decrease both cocaine- and food-maintained responding”. In addition, the “protection against MPTP-induced nigrostriatal damage” value in data set [12] is “highly protective against nigrostriatal damage”. Further, in [13], the “GDNF mRNA and protein levels in the mouse brain” value is given as “increased”. Also, the striatal neuron loss result in the data set on R6/2 mice (R6/2 mice, 20 mg/kg s.c. daily, at 10 weeks) was “rescue of a 15-20% striatal neuron loss”. Further, in the data set with R6/2 mice (daily s.c. MTD 20 mg/kg beginning at 4 weeks), the “phenotype in R6/2 mice” value is on record as “dramatically improves the phenotype”. Besides, in [2], the food-maintained responding entry was “decrease both cocaine- and food-maintained responding”. In the data set on SOD1G93A mice, the “neurological disability in SOD1G93A mice” value was “beneficial effect on neurological disability”. For the same compound, the “spinal cord GDNF levels” value with spinal cord GDNF levels was “enhanced spinal cord GDNF levels”. In addition, in the data set on reserpine-treated rat (intracerebroventricular 1, 5, 10, 20 nmol/2 μl), the “locomotor activity in reserpine-treated rat” value is “dose-dependent increase in locomotor activity”. Also, the reserpine-induced akinesia entry with reserpine-treated rat (systemic 0.1, 1, 10 mg/kg ip) is “did not reverse reserpine-induced akinesia”. For the same compound, the “protection against nigral infusion of 6-OHDA” value in [14] (10 mg/kg/day ip for 7 days) was “provided some protection against nigral infusion of 6-OHDA”. Besides, the “protection against striatal infusion of 6-OHDA” value in data set [14] (10 mg/kg/day ip for 21 days) is recorded as “significant protection in the striatum”. Moreover, in data set [14] (systemic 0.1, 1, 10 mg/kg ip), the “rotational behaviour 1 month after unilateral 6-OHDA lesioning” value is on record as “failed to effect rotational behaviour”. For the same compound, the “protection of SMI-32+ motor neurons against excitotoxic death” value in the data set on SMI-32+ motor neurons was “protected”. In addition, the “GDNF levels in cultured spinal cord astrocytes” value in data set [15] is listed as “enhanced GDNF levels”.

In general, Cmax refers to the maximum level reached in the sampled fluid or tissue. In general, Tmax refers to the time at which the peak concentration occurs.
